ChEMBL document CHEMBL5537152, “Targeted Degradation of PCSK9 In Vivo by Autophagy-Tethering Compounds” (J Med Chem, 2024)
Active and inactive are the calls of the source. The rule behind the calls is not given here.

Columns and labels:
Mus musculus [1] = assay: Antiatherosclerotic activity in hypercholesterolemic ApoE-/- mouse model assessed as decrease in vacuolization in liver at 5 to 15 mg/kg/day, ip measured after 21 days by H and E staining based analysis; assay type: functional, organism-based; details: dose 5-15 mg/kg/day, time 21.0 day
Mus musculus [2] = assay: Antiatherosclerotic activity in hypercholesterolemic ApoE-/- mouse model assessed as decrease in plasma TG level administered intraperitoneally measured after 21 days; assay type: functional, organism-based; details: dose 5-15 mg/kg/day, route ip, time 21.0 day
Mus musculus [3] = assay: Antiatherosclerotic activity in hypercholesterolemic ApoE-/- mouse model assessed as decrease in plasma triglyceride level administered intraperitoneally measured after 14 days; assay type: functional, organism-based; details: dose 15.0 mg/kg/day, route ip, time 14.0 day
Mus musculus [4] = assay: Antiatherosclerotic activity in hypercholesterolemic ApoE-/- mouse model assessed as increase in liver LDLR level at 5 to 15 mg/kg/day, ip measured after 21 days by immunohistochemistry analysis; assay type: functional, organism-based; details: dose 5-15 mg/kg/day, time 21.0 day
Mus musculus [5] = assay: Synergistic antiatherosclerotic activity in hypercholesterolemic ApoE-/- mouse model assessed as decrease in liver oxidative stress at 5 to 15 mg/kg, ip administered daily for 3 weeks in presence of SIMV; assay type: functional, organism-based; details: dose 5-15 mg/kg
Huh-7 [6] = details: Homo sapiens, dose <= 100.0 nM
Description: Inhibition of oxidative stress injury in PA/LPS-stimulated human Huh-7 cells assessed as decrease in triglyceride level upto 100 nM

Mus musculus [7] = assay: Synergistic antiatherosclerotic activity in hypercholesterolemic ApoE-/- mouse model assessed as effect on plasma LDH level at 5 to 15 mg/kg, ip administered daily for 3 weeks in presence of SIMV; assay type: functional, organism-based; details: dose 5-15 mg/kg
Mus musculus [8] = assay: Antiatherosclerotic activity in hypercholesterolemic ApoE-/- mouse model assessed as decrease in liver damage at 5 to 15 mg/kg/day, ip measured after 21 days; assay type: functional, organism-based; details: dose 5-15 mg/kg/day, time 21.0 day
Mus musculus [9] = assay: Antiatherosclerotic activity in hypercholesterolemic ApoE-/- mouse model assessed as decrease in TG accumulation in liver at 5 to 15 mg/kg/day, ip measured after 21 days; assay type: functional, organism-based; details: dose 5-15 mg/kg/day, time 21.0 day
Mus musculus [10] = assay: Antiatherosclerotic activity in hypercholesterolemic ApoE-/- mouse model assessed as decrease in liver PCSK9 level administered intraperitoneally measured after 14 days; assay type: functional, organism-based; details: dose 15.0 mg/kg/day, route ip, time 14.0 day
Mus musculus [11] = assay: Synergistic antiatherosclerotic activity in hypercholesterolemic ApoE-/- mouse model assessed as decrease in vacuolization in liver at 5 to 15 mg/kg, ip administered daily for 3 weeks in presence of SIMV by Masson staining based analysis; assay type: functional, organism-based; details: dose 5-15 mg/kg
Mus musculus [12] = assay: Antiatherosclerotic activity in hypercholesterolemic ApoE-/- mouse model assessed as decrease in oxidative stress in liver at 5 to 15 mg/kg/day, ip measured after 21 days; assay type: functional, organism-based; details: dose 5-15 mg/kg/day, time 21.0 day
Mus musculus [13] = assay: Antiatherosclerotic activity in hypercholesterolemic ApoE-/- mouse model assessed as decrease in plasma PCSK9 level at 5 to 15 mg/kg/day, ip measured after 21 days; assay type: functional, organism-based; details: dose 5-15 mg/kg/day, time 21.0 day
Mus musculus [14] = assay: Synergistic antiatherosclerotic activity in hypercholesterolemic ApoE-/- mouse model assessed as decrease in plaque area in aortic arch at 5 to 15 mg/kg, ip administered daily for 3 weeks in presence of SIMV by Aortic oil red O staining based analysis; assay type: functional, organism-based; details: dose 5-15 mg/kg
Huh-7 [15] = assay: Effect on LDLR mRNA level in human Huh-7 cells at 20 to 500 nM incubated for 12 hrs by qRT-PCR analysis; assay type: functional, cell-based; details: dose 20-500 nM
Mus musculus [16] = assay: Synergistic antiatherosclerotic activity in hypercholesterolemic ApoE-/- mouse model assessed as decrease in liver cholesterol level at 5 to 15 mg/kg, ip administered daily for 3 weeks in presence of SIMV; assay type: functional, organism-based; details: dose 5-15 mg/kg
Huh-7 [17] = assay: Effect on SREBP2 mRNA level in human Huh-7 cells at 20 to 500 nM incubated for 12 hrs by qRT-PCR analysis; assay type: functional, cell-based; details: dose 20-500 nM
Mus musculus [18] = assay: Antiatherosclerotic activity in hypercholesterolemic ApoE-/- mouse model assessed as increase in liver LDLR level administered intraperitoneally measured after 14 days; assay type: functional, organism-based; details: dose 15.0 mg/kg/day, route ip, time 14.0 day
Mus musculus [19] = assay: Antiatherosclerotic activity in hypercholesterolemic ApoE-/- mouse model assessed as decrease in vacuolization in liver at 5 to 15 mg/kg/day, ip measured after 21 days by Masson staining based analysis; assay type: functional, organism-based; details: dose 5-15 mg/kg/day, time 21.0 day
Mus musculus [20] = assay: Synergistic antiatherosclerotic activity in hypercholesterolemic ApoE-/- mouse model assessed as decrease in plasma LDL-C level at 15 mg/kg, ip administered daily for 3 weeks in presence of SIMV; assay type: functional; design: scale not given: the % may be the effect or the level left
Mus musculus [21] = assay: Synergistic antiatherosclerotic activity in hypercholesterolemic ApoE-/- mouse model assessed as effect on plasma GSH level at 5 to 15 mg/kg, ip administered daily for 3 weeks in presence of SIMV; assay type: functional, organism-based; details: dose 5-15 mg/kg
Mus musculus [22] = assay: Antiatherosclerotic activity in hypercholesterolemic ApoE-/- mouse model assessed as decrease in plaque area in […] at 5 to 15 mg/kg/day, ip measured after 21 days; assay type: functional, organism-based; details: dose 5-15 mg/kg/day, time 21.0 day
Mus musculus [23] = assay: Antiatherosclerotic activity in hypercholesterolemic ApoE-/- mouse model assessed as decrease in liver fibrosis at 5 to 15 mg/kg/day, ip measured after 21 days by Masson staining based analysis; assay type: functional, organism-based; details: dose 5-15 mg/kg/day, time 21.0 day

SMILES: COc1cc2c(cc1OCCCCN1C(=O)/C(=C\c3cc(Br)c(O)c(OC)c3)c3cc(Br)ccc31)C(C)(CC(=O)Nc1nccs1)NCC2 (stereo not drawn)
- Activity (Mus musculus [1]): Active
- Activity (Mus musculus [2]): Dose-Dependent Effect
- Activity (Mus musculus [3]): Dose-Dependent Effect
- Activity (Mus musculus [4]): Active
- Activity (Mus musculus [5]): Active
- inhibition (Huh-7 [6]): Active
- Activity (Mus musculus [7]): Active
- Activity (Mus musculus [8]): Active
- Activity (Mus musculus [9]): Active
- Activity (Mus musculus [10]): Dose-Dependent Effect
- Activity (Mus musculus [11]): Active
- Activity (Mus musculus [12]): Active
- Activity (Mus musculus [13]): Active
- Activity (Mus musculus [14]): Active
- Activity (Huh-7 [15]): inactive
- Activity (Mus musculus [16]): Active
- Activity (Huh-7 [17]): inactive
- Activity (Mus musculus [18]): Dose-Dependent Effect
- Activity (Mus musculus [19]): Active
- Activity (Mus musculus [20]): <=47.36%
- Activity (Mus musculus [21]): Active
- Activity (Mus musculus [22]): Active
- Activity (Mus musculus [23]): Active
